# Laboratory results as given in ChEMBL document CHEMBL1201862, “PubChem BioAssay data set” (2004).
# Activity calls are given as the source filed them.
# Legend:
# [1] = NIH-3T3 fibroblast cytotoxicity, dose response, cytotoxicity control, cell-based, fluorescence, Alamar Blue, secondary assay (AID 2327); format: functional;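 note: NIH-3T3 mouse fibroblasts cultured with fluconazole at 8 µg/mL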
# [2] = insulin promoter down-regulators in MIN6 cells, imaging, high-content screening, mouse beta cells (AID 1628); format: functional
# [3] = cytotoxicity in MIN6 insulinoma cells, dose response, cytotoxicity control, cell-based, mouse insulinoma (AID 2122); format: functional;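 note: confirmatory high-throughput counterscreen run to flag cytotoxic compounds; mouse MIN-6 beta cells carrying an insulin promoter eGFP reporter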
# [4] = C. albicans growth with fluconazole, confirmation, fluorescence, retest (AID 2467); format: functional, cell-based
# [5] = inhibitors of intracellular T. cruzi replication, confirmation, NIH3T3 host cells, beta-gal luminescence (AID 2044); format: functional, cell-based;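 note: intracellular parasites grown in NIH/3T3 mouse fibroblasts as host cells; luminescent beta-galactosidase reporter signal from transgenic T. cruzi replicating inside host cells; inhibitors lower the luminescence signal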
# [6] = cytotoxicity toward NIH3T3 fibroblasts, dose response, counter-screen, cell-based, ATP luminescence, mouse fibroblasts (AID 2010); format: functional;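 note: cells exposed to compound for about 90 hours before reading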
# [7] = biological target: T1, RNA-binding protein pos-1 (Caenorhabditis elegans, UniProt G5EF15); assay: inhibitors of POS-1/mex-3 RNA binding, dose response, biochemical, fluorescence polarization (AID 1964);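 note: purified POS-1 fused to maltose binding protein made in E. coli; potency of compounds blocking POS-1 binding to fluorescent RNA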
# T1 sequence (G5EF15 whole entry): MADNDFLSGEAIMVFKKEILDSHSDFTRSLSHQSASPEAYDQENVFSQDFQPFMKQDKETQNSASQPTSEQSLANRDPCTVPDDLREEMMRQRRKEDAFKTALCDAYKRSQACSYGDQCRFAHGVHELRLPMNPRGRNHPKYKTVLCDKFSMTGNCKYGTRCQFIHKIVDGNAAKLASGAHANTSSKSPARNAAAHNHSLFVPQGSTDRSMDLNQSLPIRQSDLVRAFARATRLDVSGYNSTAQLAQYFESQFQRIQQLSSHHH
# [8] = biological target: Peroxisome proliferator-activated receptor gamma/Nuclear receptor coactivator 1 (Homo sapiens, UniProt P37231); assay: (§1) TR-FRET dose response biochemical High Throughput Screening assay for agonists of the steroid receptor coactivator 1 (SRC-1) recruitment by the peroxisome proliferator-activated receptor gamma (PPAR gamma): non-selective agonists. [Related pubchem assays (depositor defined):AID1300, AID1808, AID504735, AID631]; format: protein assay
# [9] = biological target: Peroxisome proliferator-activated receptor gamma/Nuclear receptor coactivator 3 (Homo sapiens, UniProt P37231); assay: as §1, with “3 (SRC-3)” for “1 (SRC-1)”, “assays: 1301 (Confirmation screen.), 1048 (Primary screen.)]” for “assays (depositor defined):AID1300, AID1808, AID504735, AID631]”; format: functional
# [10] = biological target: T2, Zinc finger protein mex-5 (Caenorhabditis elegans, UniProt Q9XUB2); assay: MEX-5/TCR-2 RNA interaction inhibitors, dose response, biochemical, C. elegans, fluorescence polarization (AID 1960)
# T2 sequence (Q9XUB2 whole entry): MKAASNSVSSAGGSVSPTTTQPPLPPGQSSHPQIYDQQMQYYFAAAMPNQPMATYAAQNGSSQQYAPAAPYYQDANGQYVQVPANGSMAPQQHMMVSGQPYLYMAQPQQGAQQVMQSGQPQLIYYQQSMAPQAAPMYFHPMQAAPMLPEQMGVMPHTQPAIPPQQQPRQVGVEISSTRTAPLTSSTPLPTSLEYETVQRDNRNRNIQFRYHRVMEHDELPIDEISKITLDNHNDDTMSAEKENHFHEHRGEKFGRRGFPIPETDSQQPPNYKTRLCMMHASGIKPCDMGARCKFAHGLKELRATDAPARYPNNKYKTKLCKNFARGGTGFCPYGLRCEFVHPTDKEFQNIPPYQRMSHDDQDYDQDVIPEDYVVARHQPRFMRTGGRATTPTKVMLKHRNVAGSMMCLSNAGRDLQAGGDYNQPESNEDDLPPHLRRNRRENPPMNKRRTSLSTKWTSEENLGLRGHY
# [11] = biological target: Peroxisome proliferator-activated receptor gamma/Nuclear receptor coactivator 2 (Homo sapiens, UniProt P37231); assay: TR-FRET dose response biochemical High Throughput Screening assay for agonists of the steroid receptor coactivator 2 (SRC-2) recruitment by the peroxisome proliferator-activated receptor gamma (PPAR gamma): non-selective agonists. [Related pubchem assays: 1297, 1032 ]; format: functional
# [12] = HEp-2 cell cytotoxicity, dose response, cytotoxicity control for RSV inhibitor project, HTS (AID 2410); format: functional; details: human respiratory syncytial virus
# [13] = system: Escherichia coli; assay: microbe, parasite or virus in culture
# [14] = system: Escherichia coli; assay: microbe, parasite or virus in culture; remark: listed apart in the source
# [15] = biological target: T3, Aminopeptidase N (Plasmodium falciparum FcB1/Columbia, UniProt O96935); assay: P. falciparum M1AAP inhibitors, biochemical, fluorogenic H-Leu-NHMec substrate, 1536-well (AID 1445); design: species or system Plasmodium falciparum 3D7, 3D7
# T3 sequence (O96935 whole entry): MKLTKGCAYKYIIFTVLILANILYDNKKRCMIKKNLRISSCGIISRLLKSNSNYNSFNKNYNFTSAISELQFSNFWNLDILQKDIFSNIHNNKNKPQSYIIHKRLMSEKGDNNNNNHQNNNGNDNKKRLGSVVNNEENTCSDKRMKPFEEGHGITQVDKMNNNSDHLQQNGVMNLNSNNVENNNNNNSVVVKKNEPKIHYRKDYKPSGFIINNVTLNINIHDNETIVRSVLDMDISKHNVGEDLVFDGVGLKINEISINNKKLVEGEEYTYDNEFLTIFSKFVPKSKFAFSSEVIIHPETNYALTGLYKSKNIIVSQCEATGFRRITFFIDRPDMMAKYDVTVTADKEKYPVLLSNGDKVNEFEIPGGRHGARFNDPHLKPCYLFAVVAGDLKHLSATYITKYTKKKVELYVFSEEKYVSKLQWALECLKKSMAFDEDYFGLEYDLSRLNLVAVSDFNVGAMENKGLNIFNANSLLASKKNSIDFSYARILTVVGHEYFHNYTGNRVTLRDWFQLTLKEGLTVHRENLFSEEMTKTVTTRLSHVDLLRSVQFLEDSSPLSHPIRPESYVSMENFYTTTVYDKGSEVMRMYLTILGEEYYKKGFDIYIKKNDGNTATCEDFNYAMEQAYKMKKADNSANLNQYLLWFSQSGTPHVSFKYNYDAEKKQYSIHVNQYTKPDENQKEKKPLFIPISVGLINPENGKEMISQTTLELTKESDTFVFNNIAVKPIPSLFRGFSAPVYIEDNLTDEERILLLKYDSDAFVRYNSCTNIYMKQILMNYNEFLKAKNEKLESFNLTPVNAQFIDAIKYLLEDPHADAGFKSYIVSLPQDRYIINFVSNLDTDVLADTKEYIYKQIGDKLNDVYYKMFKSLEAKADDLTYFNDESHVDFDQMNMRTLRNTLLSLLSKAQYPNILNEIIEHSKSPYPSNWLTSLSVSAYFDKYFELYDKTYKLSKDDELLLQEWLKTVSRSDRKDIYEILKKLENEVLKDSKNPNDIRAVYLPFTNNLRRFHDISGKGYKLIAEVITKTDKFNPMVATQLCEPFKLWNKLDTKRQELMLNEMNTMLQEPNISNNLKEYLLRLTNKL
# [16] = biological target: Intestinal-type alkaline phosphatase (Mus musculus, UniProt P24822); assay: PubChem AID 488785; format: functional
# [17] = biological target: FAD-linked sulfhydryl oxidase ALR (Homo sapiens, UniProt P55789); assay: inhibitors of human ALR sulfhydryl oxidase, dose response, biochemical, H2O2 detection, luminescence, cherry-pick (AID 493248)
# [18] = biological target: T4, Alkaline phosphatase, tissue-nonspecific isozyme (Homo sapiens, UniProt P05186); assay: TNAP enzyme inhibition by screening hits, dose response, selectivity assay for mouse IAP inhibitor project, biochemical, human TNAP, uHTS hits (AID 488906); format: functional
# T4 sequence (P05186 whole entry): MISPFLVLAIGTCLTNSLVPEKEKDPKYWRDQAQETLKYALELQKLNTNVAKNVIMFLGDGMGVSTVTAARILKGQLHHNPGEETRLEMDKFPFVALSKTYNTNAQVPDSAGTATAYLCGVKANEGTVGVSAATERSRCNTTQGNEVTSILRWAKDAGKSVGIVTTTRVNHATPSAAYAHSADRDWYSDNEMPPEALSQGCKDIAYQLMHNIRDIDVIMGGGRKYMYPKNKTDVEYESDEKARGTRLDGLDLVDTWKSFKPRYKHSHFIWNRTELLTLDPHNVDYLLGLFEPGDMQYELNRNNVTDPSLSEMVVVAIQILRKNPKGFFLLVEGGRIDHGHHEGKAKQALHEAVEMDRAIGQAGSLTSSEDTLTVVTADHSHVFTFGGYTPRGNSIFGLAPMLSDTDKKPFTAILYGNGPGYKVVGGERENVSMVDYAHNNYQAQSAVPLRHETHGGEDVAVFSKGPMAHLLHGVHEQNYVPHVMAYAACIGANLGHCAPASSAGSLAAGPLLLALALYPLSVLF
# [19] = biological target: Intestinal-type alkaline phosphatase (Homo sapiens, UniProt P09923); assay: inhibition of human intestinal alkaline phosphatase – biochemical, dose response (AID 488876); format: functional
# Sequence of Peroxisome proliferator-activated receptor gamma/Nuclear receptor coactivator 1 (P37231 whole entry): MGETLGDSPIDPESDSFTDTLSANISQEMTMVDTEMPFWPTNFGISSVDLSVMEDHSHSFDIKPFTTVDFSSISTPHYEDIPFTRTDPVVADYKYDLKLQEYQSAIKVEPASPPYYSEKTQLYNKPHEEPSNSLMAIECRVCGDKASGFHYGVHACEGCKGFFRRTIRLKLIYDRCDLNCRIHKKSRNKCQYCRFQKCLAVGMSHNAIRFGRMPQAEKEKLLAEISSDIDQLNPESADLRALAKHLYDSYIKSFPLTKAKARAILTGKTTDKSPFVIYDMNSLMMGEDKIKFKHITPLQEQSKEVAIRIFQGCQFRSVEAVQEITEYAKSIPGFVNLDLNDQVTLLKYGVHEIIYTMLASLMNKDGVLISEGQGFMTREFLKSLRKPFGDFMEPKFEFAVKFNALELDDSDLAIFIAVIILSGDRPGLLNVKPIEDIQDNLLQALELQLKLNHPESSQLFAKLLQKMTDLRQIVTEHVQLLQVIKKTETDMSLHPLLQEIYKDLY
# Sequence of Peroxisome proliferator-activated receptor gamma/Nuclear receptor coactivator 1 (Q15788 whole entry, further chain): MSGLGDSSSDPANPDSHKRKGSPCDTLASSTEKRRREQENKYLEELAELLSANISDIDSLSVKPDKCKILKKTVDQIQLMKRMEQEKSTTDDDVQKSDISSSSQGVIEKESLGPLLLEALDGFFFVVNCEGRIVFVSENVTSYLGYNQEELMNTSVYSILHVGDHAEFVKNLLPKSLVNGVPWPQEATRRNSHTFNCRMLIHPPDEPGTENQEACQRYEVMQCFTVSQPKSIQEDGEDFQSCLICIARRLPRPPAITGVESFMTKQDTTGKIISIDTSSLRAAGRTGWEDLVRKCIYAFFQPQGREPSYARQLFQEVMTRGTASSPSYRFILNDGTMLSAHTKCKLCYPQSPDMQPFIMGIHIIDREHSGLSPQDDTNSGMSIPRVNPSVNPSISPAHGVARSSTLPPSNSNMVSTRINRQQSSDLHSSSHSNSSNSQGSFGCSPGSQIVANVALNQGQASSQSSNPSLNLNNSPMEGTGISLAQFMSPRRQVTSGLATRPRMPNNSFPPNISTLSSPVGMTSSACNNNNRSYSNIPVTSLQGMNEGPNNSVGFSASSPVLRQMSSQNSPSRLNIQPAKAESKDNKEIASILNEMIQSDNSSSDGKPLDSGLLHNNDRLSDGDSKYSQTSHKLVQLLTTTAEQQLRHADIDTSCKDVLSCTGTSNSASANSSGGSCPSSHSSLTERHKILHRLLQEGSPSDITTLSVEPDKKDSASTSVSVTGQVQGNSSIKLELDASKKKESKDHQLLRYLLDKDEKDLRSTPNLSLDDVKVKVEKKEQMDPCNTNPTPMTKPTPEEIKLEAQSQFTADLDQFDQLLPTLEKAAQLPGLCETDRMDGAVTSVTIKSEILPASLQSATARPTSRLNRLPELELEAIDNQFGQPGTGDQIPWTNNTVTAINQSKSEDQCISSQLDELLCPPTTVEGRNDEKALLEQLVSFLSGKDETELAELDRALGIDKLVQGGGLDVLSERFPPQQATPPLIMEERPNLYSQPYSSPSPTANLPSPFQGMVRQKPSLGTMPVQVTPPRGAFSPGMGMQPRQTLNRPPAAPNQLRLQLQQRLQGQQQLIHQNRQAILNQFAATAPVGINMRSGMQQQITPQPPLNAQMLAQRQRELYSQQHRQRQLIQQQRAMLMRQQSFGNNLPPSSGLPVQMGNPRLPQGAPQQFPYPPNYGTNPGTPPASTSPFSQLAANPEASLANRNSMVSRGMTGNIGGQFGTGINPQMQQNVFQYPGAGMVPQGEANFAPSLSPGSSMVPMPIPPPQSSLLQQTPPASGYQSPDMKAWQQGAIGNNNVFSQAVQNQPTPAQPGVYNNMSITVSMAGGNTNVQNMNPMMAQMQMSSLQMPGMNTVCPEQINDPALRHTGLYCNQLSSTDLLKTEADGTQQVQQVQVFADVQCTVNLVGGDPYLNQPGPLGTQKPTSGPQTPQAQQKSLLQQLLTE
# Sequence of Peroxisome proliferator-activated receptor gamma/Nuclear receptor coactivator 3 (P37231 whole entry): as the sequence (P37231 whole entry) above
# Sequence of Peroxisome proliferator-activated receptor gamma/Nuclear receptor coactivator 3 (Q9Y6Q9 whole entry, further chain): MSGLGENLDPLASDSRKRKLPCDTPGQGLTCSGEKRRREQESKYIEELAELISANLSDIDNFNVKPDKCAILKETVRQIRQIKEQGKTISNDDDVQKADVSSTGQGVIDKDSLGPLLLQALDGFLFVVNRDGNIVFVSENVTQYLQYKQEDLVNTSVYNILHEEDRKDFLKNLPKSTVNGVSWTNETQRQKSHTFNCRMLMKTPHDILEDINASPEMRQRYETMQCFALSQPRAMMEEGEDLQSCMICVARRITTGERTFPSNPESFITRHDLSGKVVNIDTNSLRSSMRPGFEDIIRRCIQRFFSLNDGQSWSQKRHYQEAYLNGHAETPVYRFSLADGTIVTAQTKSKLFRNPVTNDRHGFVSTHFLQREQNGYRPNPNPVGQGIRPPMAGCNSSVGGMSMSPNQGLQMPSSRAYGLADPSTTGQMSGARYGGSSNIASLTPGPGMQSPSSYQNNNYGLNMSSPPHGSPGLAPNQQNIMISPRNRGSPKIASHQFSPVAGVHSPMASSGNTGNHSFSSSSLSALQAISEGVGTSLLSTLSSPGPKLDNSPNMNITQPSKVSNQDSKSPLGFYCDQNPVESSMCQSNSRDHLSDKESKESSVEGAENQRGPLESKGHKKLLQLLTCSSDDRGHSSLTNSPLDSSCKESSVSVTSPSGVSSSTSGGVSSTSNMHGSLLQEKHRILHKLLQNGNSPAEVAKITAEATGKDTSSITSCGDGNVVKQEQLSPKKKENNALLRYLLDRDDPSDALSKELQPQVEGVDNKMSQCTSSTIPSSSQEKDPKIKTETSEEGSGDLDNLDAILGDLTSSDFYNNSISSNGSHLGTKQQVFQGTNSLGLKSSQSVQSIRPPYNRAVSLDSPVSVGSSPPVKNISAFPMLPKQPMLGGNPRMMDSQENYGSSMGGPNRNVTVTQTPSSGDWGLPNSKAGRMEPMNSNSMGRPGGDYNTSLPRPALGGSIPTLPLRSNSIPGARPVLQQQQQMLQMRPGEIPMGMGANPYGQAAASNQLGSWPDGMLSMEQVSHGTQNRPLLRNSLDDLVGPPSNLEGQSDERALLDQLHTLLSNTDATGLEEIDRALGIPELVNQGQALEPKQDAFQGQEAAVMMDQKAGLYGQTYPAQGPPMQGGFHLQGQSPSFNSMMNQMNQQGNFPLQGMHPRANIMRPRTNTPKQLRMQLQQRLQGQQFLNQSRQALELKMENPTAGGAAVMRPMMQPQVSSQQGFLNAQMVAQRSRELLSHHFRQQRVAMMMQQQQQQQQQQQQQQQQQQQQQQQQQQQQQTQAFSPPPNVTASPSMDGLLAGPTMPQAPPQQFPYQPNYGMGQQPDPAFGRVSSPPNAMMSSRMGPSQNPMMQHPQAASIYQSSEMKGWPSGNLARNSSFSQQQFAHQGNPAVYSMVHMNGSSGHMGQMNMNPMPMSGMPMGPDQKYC
# Sequence of Intestinal-type alkaline phosphatase (Mus musculus, UniProt P24822) (P24822 whole entry): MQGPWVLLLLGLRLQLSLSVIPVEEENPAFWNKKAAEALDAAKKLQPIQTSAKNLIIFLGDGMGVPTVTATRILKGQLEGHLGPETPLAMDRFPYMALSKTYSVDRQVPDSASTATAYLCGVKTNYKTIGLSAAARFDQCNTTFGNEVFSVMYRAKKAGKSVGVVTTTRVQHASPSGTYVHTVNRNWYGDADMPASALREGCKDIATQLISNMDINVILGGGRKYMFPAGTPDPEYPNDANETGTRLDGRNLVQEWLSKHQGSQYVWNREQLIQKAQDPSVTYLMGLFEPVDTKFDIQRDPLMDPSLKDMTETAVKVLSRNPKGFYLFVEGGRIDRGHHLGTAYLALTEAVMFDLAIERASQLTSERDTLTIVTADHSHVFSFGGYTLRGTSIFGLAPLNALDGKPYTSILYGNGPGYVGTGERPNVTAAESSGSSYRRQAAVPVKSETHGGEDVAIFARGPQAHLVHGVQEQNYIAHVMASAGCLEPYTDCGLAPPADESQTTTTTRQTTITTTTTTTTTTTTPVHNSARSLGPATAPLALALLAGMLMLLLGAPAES
# Sequence of FAD-linked sulfhydryl oxidase ALR (P55789 whole entry): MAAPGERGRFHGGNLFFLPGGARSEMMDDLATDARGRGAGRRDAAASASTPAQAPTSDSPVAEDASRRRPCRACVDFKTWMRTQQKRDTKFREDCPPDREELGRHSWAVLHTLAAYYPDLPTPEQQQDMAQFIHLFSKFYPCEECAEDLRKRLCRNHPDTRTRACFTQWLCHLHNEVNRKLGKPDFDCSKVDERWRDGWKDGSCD
compound,measurement,setting,value
CCN(CC)c1nc(-c2ccccn2)nc(-c2ccccc2)c1C#N,EC50,[1],> 160 µM (inconclusive)
same,IC50,[2],2.71 µM (active)
same,IC50,[3],3.09 µM (active)
same,EC50,[4],> 38 µM (not active)
same,EC50,[5],1.57 µM (active)
same,EC50,[6],6.71 µM (active)
COc1cccc(C2C(C(=O)c3cc4cccc(OC)c4o3)=C(O)C(=O)N2c2cc(C)on2)c1OC (centres undefined),EC50,[7],> 300 µM (not active)
same,EC50,[8],> 79.4 µM (inactive)
same,EC50,[9],> 79.4 µM (not active)
same,EC50,[10],> 300 µM (not active)
same,EC50,[11],19.6 µM (not active)
O=c1cc(CSc2nc3nncc-3c(O)n2-c2ccc(Br)cc2)nc2ccc(Br)cn12,CC50,[12],22.8 µM (active)
same,EC50,[8],15.8 µM (inactive)
same,EC50,[9],48.1 µM (not active)
same,EC50,[11],11.6 µM (not active)
O=C(CS(=O)(=O)c1ccc(Cl)c(Cl)c1)Nc1ccccc1Cl,AC50,[13],47.2 µM (active)
same,AC50,[14],300 µM (active)
NS(=O)(=O)c1ccc(CCNc2ncnc3sccc23)cc1,IC50,[2],2.01 µM (active)
same,IC50,[3],1.06 µM (active)
Cc1ccc(S(=O)(=O)Nc2ccc(O)c(Sc3nc[nH]n3)c2)cc1,IC50,[15],83.8 µM (active)
same,IC50,[16],13.8 µM (active)
same,AC50,[17],3.31 µM (active)
same,IC50,[18],> 100 µM (inactive)
same,IC50,[19],> 100 µM (inactive)
